Values joined by “and” are separate entries in the source; they are usually repeats but may differ in a detail not shown here. Equal values may be shown once. Toxic doses and inconclusive results are not listed. Cut-off read from the data, not from the text of the source: active = T/C of 150% or more; inactive = T/C below 125%.
Tested on: L1210 leukemia ip in BDF1 mice, survival T/C
Assay: NCI In Vivo Anticancer Drug Screen. Data for tumor model L1210 Leukemia (intraperitoneal) in B6D2F1 (BDF1) mice
Details: endpoint: mean survival time, higher = longer survival
Summary of the method: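 Tumor was transplanted into mice, which were then dosed with test compound or vehicle alone. Survival was recorded for each group, and the treated figure was expressed relative to the control figure.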

[1] = dose: 100.0 mg/kg/injection, schedule: Q01DX009 (ip), vehicle: saline
[2] = dose: 200.0 mg/kg/injection, schedule: Q01DX009 (ip), vehicle: saline
[3] = dose: 400.0 mg/kg/injection, schedule: Q01DX009 (ip), vehicle: saline
[4] = dose: 100.0 mg/kg/injection, schedule: Q04DX002 (ip), vehicle: Klucel (hydroxypropylcellulose) (HPC)
[5] = dose: 200.0 mg/kg/injection, schedule: Q04DX002 (ip), vehicle: Klucel (hydroxypropylcellulose) (HPC)
[6] = dose: 400.0 mg/kg/injection, schedule: Q04DX002 (ip), vehicle: Klucel (hydroxypropylcellulose) (HPC)
[7] = dose: 100.0 mg/kg/injection, schedule: Q04DX003 (ip), vehicle: saline with Tween-80
[8] = dose: 100.0 mg/kg/injection, schedule: Q01DX001 (ip), vehicle: saline
[9] = dose: 200.0 mg/kg/injection, schedule: Q01DX001 (ip), vehicle: saline
[10] = dose: 50.0 mg/kg/injection, schedule: Q01DX001 (ip), vehicle: carboxymethylcellulose (CMC)
[11] = dose: 100.0 mg/kg/injection, schedule: Q01DX001 (ip), vehicle: carboxymethylcellulose (CMC)
[12] = dose: 200.0 mg/kg/injection, schedule: Q01DX001 (ip), vehicle: carboxymethylcellulose (CMC)
[13] = dose: 400.0 mg/kg/injection, schedule: Q01DX001 (ip), vehicle: carboxymethylcellulose (CMC)
[14] = dose: 400.0 mg/kg/injection, schedule: Q01DX001 (ip), vehicle: saline
[15] = dose: 100.0 mg/kg/injection, schedule: Q01DX009 (ip), vehicle: Klucel (hydroxypropylcellulose) (HPC)
[16] = dose: 200.0 mg/kg/injection, schedule: Q01DX009 (ip), vehicle: Klucel (hydroxypropylcellulose) (HPC)

Measured: T/C

CC(C)CC(=O)CC(O)(C(F)(F)F)C(F)(F)F
inactive: dose: 50.0 mg/kg/injection, schedule: Q01DX009 (ip), vehicle: saline 101 % of control | dose: 50.0 mg/kg/injection, schedule: Q04DX003 (ip), vehicle: saline 94 % of control | [1] 104 % of control | dose: 100.0 mg/kg/injection, schedule: Q04DX003 (ip), vehicle: saline 92 % of control | [2] 104 % of control | dose: 200.0 mg/kg/injection, schedule: Q04DX003 (ip), vehicle: saline 100 % of control | [3] 93 % of control | dose: 400.0 mg/kg/injection, schedule: Q04DX003 (ip), vehicle: saline 103 % of control

CCOc1ccc(NC(=O)c2cccc(Cl)c2)cc1
inactive: [1] 109 % of control | [2] 96 % of control | [3] 96 % of control

CC(=O)c1ccc(-c2ccc(C(C)=O)cc2)cc1
inactive: [4] 97 % of control | [5] 101 % of control | [6] 97 % of control

[O-]/[N+](=N/O)c1ccc(Cl)cc1
inactive: dose: 25.0 mg/kg/injection, schedule: Q01DX001 (ip), vehicle: saline with Tween-80 96 % of control | dose: 25.0 mg/kg/injection, schedule: Q01DX009 (ip), vehicle: saline with Tween-80 100 % of control | dose: 25.0 mg/kg/injection, schedule: Q04DX003 (ip), vehicle: saline with Tween-80 103 % of control | dose: 50.0 mg/kg/injection, schedule: Q01DX001 (ip), vehicle: saline with Tween-80 92 % of control | dose: 50.0 mg/kg/injection, schedule: Q01DX009 (ip), vehicle: saline with Tween-80 94 % of control | dose: 50.0 mg/kg/injection, schedule: Q04DX003 (ip), vehicle: saline with Tween-80 94 % of control | dose: 100.0 mg/kg/injection, schedule: Q01DX001 (ip), vehicle: saline with Tween-80 100 % of control | [7] 92 % of control

CC1CCCCN1CC(Cl)(Cl)Cl (centres undefined)
inactive: [8] 89 % of control | [9] 94 % of control

CC(=O)OCC1OC(n2c(Br)nc3c(N)ncnc32)C2OC(C)(C)OC12 (centres undefined)
inactive: dose: 25.0 mg/kg/injection, schedule: Q01DX001 (ip), vehicle: carboxymethylcellulose (CMC) 95 % of control | [10] 100 % of control | [11] 93 % of control

Cc1ccc([N+](=O)[O-])cc1NC(=O)OCCOc1ccccc1
inactive: [1] 90 % of control | [2] 103 % of control | [3] 92 % of control

CC(=O)Cc1c[nH]c2ccccc12
inactive: [10] 103 % of control | [11] 97 % of control | [4] 97 % of control | [12] 106 % of control | [5] 101 % of control | [13] 103 % of control | [6] 111 % of control

CC(=O)O[C@H]1C[C@@]2(C)[C@@H](C[C@@H](O)[C@H]3[C@@]4(C)CC[C@@H](O)[C@@H](C)[C@@H]4CC[C@@]32C)/C1=C(\CCC=C(C)C)C(=O)O
inactive: dose: 50.0 mg/kg/injection, schedule: Q01DX009 (sc), vehicle: steriod suspending solution 95 % of control | [11] 97 % of control | dose: 100.0 mg/kg/injection, schedule: Q01DX009 (sc), vehicle: steriod suspending solution 95 % of control | dose: 100.0 mg/kg/injection, schedule: Q04DX003 (ip), vehicle: steriod suspending solution 102 % of control | [12] 94 % of control | dose: 200.0 mg/kg/injection, schedule: Q01DX009 (sc), vehicle: steriod suspending solution 103 % of control | dose: 200.0 mg/kg/injection, schedule: Q04DX003 (ip), vehicle: steriod suspending solution 102 % of control | [13] 90 % of control | dose: 400.0 mg/kg/injection, schedule: Q04DX003 (ip), vehicle: steriod suspending solution 101 % of control

CC(=O)Oc1ccc2c3c(c(=O)oc2c1)C(C)(C)c1c(c(=O)oc2cc(OC(C)=O)ccc12)C3(C)C
inactive: dose: 100.0 mg/kg/injection, schedule: Q01DX009 (ip), vehicle: saline sonified 97 % of control | dose: 100.0 mg/kg/injection, schedule: Q04DX003 (ip), vehicle: saline sonified 102 % of control | dose: 200.0 mg/kg/injection, schedule: Q01DX009 (ip), vehicle: saline sonified 98 % of control | dose: 200.0 mg/kg/injection, schedule: Q04DX003 (ip), vehicle: saline sonified 97 % of control | dose: 400.0 mg/kg/injection, schedule: Q01DX009 (ip), vehicle: saline sonified 98 % of control | dose: 400.0 mg/kg/injection, schedule: Q04DX003 (ip), vehicle: saline sonified 105 % of control

Cc1ncc(O)c(CO)c1O
inactive: dose: 50.0 mg/kg/injection, schedule: Q01DX001 (ip), vehicle: saline 108 % of control | [8] 96 % of control | [9] 96 % of control | [14] 96 % of control

Cn1nnc(CCO)n1
inactive: [8] 95 % of control | [9] 95 % of control | [14] 100 % of control

N#Cc1ccccc1COCc1ccccc1
inactive: [15] 102 % of control | [16] 98 % of control | dose: 400.0 mg/kg/injection, schedule: Q01DX009 (ip), vehicle: Klucel (hydroxypropylcellulose) (HPC) 95 % of control

CN1C=c2c3c(ccc2=C2C=CC4C=C5OCOC5=CC4=C21)OCO3 (centres undefined)
inactive: dose: 2.0 mg/kg/injection, schedule: Q01DX015 (ip), vehicle: saline 97 % of control | dose: 4.0 mg/kg/injection, schedule: Q01DX015 (ip), vehicle: saline 91 % of control | dose: 5.0 mg/kg/injection, schedule: Q01DX001 (ip), vehicle: saline 96 % of control | dose: 6.25 mg/kg/injection, schedule: Q04DX003 (ip), vehicle: saline 92 % of control | dose: 7.5 mg/kg/injection, schedule: Q01DX009 (ip), vehicle: saline 97 % of control | dose: 8.0 mg/kg/injection, schedule: Q01DX015 (ip), vehicle: saline 92 % of control | dose: 10.0 mg/kg/injection, schedule: Q01DX001 (ip), vehicle: saline 96 % of control | dose: 12.5 mg/kg/injection, schedule: Q04DX003 (ip), vehicle: saline 88 % of control | dose: 15.0 mg/kg/injection, schedule: Q01DX009 (ip), vehicle: saline 100 % of control | dose: 16.0 mg/kg/injection, schedule: Q01DX015 (ip), vehicle: saline 100 % of control | dose: 20.0 mg/kg/injection, schedule: Q01DX001 (ip), vehicle: saline 94 % of control | dose: 25.0 mg/kg/injection, schedule: Q04DX003 (ip), vehicle: saline 95 % of control and 90 % of control | dose: 30.0 mg/kg/injection, schedule: Q01DX009 (ip), vehicle: saline 102 % of control

CC(C)CN1C(c2ccccc2)=CN(Cc2ccccc2)C=C1c1ccccc1
inactive: [4] 100 % of control | [5] 120 % of control | [6] 113 % of control

COc1ccc(/C(C)=C\C(=O)O)cc1
inactive: dose: 100.0 mg/kg/injection, schedule: Q01DX009 (ip), vehicle: saline with Tween-80 96 % of control | [7] 107 % of control | dose: 200.0 mg/kg/injection, schedule: Q01DX009 (ip), vehicle: saline with Tween-80 102 % of control | dose: 200.0 mg/kg/injection, schedule: Q04DX003 (ip), vehicle: saline with Tween-80 113 % of control | dose: 400.0 mg/kg/injection, schedule: Q01DX009 (ip), vehicle: saline with Tween-80 101 % of control | dose: 400.0 mg/kg/injection, schedule: Q04DX003 (ip), vehicle: saline with Tween-80 115 % of control

CC(=O)[O][Hg][CH]1CCC2OC1CC[CH]2[Hg][O]C(C)=O (centres undefined)
inactive: dose: 12.5 mg/kg/injection, schedule: Q01DX009 (ip), vehicle: Klucel (hydroxypropylcellulose) (HPC) 97 % of control | dose: 25.0 mg/kg/injection, schedule: Q01DX009 (ip), vehicle: Klucel (hydroxypropylcellulose) (HPC) 94 % of control | dose: 25.0 mg/kg/injection, schedule: Q04DX003 (ip), vehicle: Klucel (hydroxypropylcellulose) (HPC) 91 % of control | dose: 50.0 mg/kg/injection, schedule: Q01DX009 (ip), vehicle: Klucel (hydroxypropylcellulose) (HPC) 96 % of control | dose: 50.0 mg/kg/injection, schedule: Q04DX003 (ip), vehicle: Klucel (hydroxypropylcellulose) (HPC) 98 % of control

Cc1ccc(NC(=O)c2c(Br)c(Br)c(Br)c(Br)c2C(=O)O)cc1Cl
inactive: [15] 100 % of control | [4] 96 % of control | [16] 96 % of control | [5] 110 % of control | [6] 102 % of control
